Laboratory results as given in patent US7375180B2, “Methods and compositions related to IRM compounds and Toll-like receptor 8” (3M Innovative Properties Company, priority 2003, dated 2008).

Legend:
[1] = test system: HEK293-vector; test: NF-κB-luciferase reporter activation in HEK293-vector control cells, 10 μM IRM (Example 1); type: cell-based, human; conditions: 16 hours, luciferase signal, vector-transfected cells; for fold induction at 10 µM: Homo sapiens, read-out: Fold Increase Over DMSO Control, HEK293-vector
From the text: (§1) HEK293 cells, derived from human embryonic kidney cells, may be co-transfected with (1) either a control vector (HEK293-vector) or a vector construct including human TLR8 (HEK293-TLR8), and (2) an NF-κB-luciferase reporter. The NF-κB-luciferase reporter provides a luciferase signal upon NF-κB activation in a transfected cell. Thus, TLR8-mediated NF-κB activity can be detected by exposing the cells transfected with vector and the cells transfected with the TLR8 construct to a test compound, then comparing the luciferase signal of the vector-transfected cells with the luciferase signal of the cells transfected with the TLR8 construct.
(§2) HEK293 cells were cultured in 90% Minimum Essential Medium (MEM) with 2 mM L-glutamine and Earle's Balanced Salt Solution (Invitrogen Corp., Rockville, Md.) adjusted to contain 1.5 g/L sodium bicarbonate, 0.1 mM non-essential amino acids, and 1.0 mM sodium pyruvate; 10% heat-inactivated fetal calf serum. The cells were incubated at 37° C., 8% CO2.
(§3) The cells were co-transfected with (1) pIRES (BD Biosciences Clontech, Palo Alto, Calif.) either (a) unmodified (HEK293-vector) or (b) containing human TLR8 (HEK293-TLR8), and (2) NFkB-luc reporter (Stratagene, La Jolla, Calif.) in a 10:1 ratio with Fugene 6 transfection reagent (Roche Diagnostics Corp., Indianapolis, Ind.) following the manufacturer's instructions.
(§4) The cells were stimulated with 1 μL of IRM compounds at 1 mM in DMSO (final IRM concentration of 10 μM) or 1 μL DMSO as a control. The plates were then incubated an additional 16 hours at 37° C., 5% CO2. Luminescence was measured on an LMAX luminometer (Molecular Devices Corp., Sunnyvale, Calif.).

[2] = target: T1, TLR8 (Homo sapiens, UniProt Q9NR97); test: NF-κB-luciferase reporter activation in HEK293-TLR8 cells, 10 μM IRM (Example 1); type: cell-based; parameters: expressed in transfected cells; host or cells: HEK293 (ATCC CRL-1573), pIRES vector, G-418 selected, co-transfected with NFkB-luc reporter; conditions: for Fold Increase Over DMSO Control, HEK293-TLR8: 16 hours, luciferase signal, TLR8-transfected cells; for Fold Increase Over DMSO Control, HEK293-TLR8 / HEK293-vector: ratio of TLR8-transfected to vector-transfected cells
T1 sequence (Q9NR97 27-1041): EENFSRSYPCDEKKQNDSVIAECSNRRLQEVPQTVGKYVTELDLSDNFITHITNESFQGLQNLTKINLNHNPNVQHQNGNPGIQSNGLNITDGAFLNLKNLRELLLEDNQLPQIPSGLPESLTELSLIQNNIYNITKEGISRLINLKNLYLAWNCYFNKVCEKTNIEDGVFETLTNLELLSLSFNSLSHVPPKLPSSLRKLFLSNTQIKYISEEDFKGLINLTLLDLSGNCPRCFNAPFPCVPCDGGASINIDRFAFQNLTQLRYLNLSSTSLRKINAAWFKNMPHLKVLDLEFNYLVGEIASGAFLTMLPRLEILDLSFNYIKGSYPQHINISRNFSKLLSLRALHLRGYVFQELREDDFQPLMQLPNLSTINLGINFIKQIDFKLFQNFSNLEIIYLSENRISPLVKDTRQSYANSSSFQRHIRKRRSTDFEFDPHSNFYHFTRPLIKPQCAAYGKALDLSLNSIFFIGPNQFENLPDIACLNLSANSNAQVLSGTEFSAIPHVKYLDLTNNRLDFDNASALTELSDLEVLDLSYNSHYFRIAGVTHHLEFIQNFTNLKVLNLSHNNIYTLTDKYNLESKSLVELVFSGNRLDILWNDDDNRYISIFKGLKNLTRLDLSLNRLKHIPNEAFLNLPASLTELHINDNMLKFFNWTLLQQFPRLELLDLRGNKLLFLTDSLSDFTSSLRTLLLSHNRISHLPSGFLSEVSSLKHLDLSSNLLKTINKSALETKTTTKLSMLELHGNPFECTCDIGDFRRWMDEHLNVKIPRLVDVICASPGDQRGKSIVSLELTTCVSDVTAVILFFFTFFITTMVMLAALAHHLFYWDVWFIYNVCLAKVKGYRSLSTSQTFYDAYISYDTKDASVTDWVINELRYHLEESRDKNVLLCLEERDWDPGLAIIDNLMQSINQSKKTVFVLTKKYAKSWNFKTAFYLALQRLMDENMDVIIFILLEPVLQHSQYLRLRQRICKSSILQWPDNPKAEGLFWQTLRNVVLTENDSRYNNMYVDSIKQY
From the text: as §1, §2, §3, §4

[3] = target: T1, TLR8; test: Identification as TLR8 activator or non-activator (negative control compound); type: cell-based; conditions: used as negative control in monocyte, dendritic cell and macrophage tests

Structure (SMILES)	Fold Increase Over DMSO Control, HEK293-vector [1] [fold]	Fold Increase Over DMSO Control, HEK293-TLR8 [2] [fold]	Fold Increase Over DMSO Control, HEK293-TLR8 / HEK293-vector [2]	fold induction at 10 µM [1]	TLR8 activation (in words) [3]
COCCc1nc2c(N)nc3ccccc3c2n1CC(C)(C)O [IRM 2, 4-amino-α,α-dimethyl-2-methoxyethyl-1H-imidazo[4,5-c]quinoline-1-ethanol]	1.16	10.18	8.8		
CCOCc1nc2c(N)nc3ccccc3c2n1CCOCCCOCc1ccccc1 [IRM 4, 1-{2-[3-(benzyloxy)propoxy]ethyl}-2-(ethoxymethyl)-1H-imidazo[4,5-c]quinolin-4-amine]		2.64	6.4	0.41	
CCCCNC(=O)NCCCCn1c(CCCC)nc2c(N)nc3cccnc3c21 [IRM 5, N-[4-(4-amino-2-butyl-1H-imidazo[4,5-c][1,5]naphthyridin-1-yl)butyl]-n′-butylurea]	0.84	2.13	2.5		
CCCCc1nc2c(N)nc3cccnc3c2n1CCNC(=O)C(N)CC(C)C (stereo not shown) [IRM 6, N^1-[2-(4-amino-2-butyl-1H-imidazo[4,5-c][1,5]naphthyridin-1-yl)ethyl]-2-amino-4-methylpentanamide]		9.24	7.8	1.19	
Nc1nc2ccccc2c2c1ncn2CCCCNC(=O)c1ccccc1Oc1ccccc1 [IRM 7, N^1-[4-(4-amino-1H-imidazo[4,5-c]quinolin-1-yl)butyl]-2-phenoxybenzamide]		10.69	10.5	1.02	
Nc1nc2ccccc2c2c1ncn2CCOCC#Cc1ccncc1.O=C(O)C(F)(F)F.O=C(O)C(F)(F)F [IRM 8, 1-(2-{[3-(4-pyridyl)-2-propynyl]oxy}ethyl)-1H-imidazo[4,5-c]quinolin-4-amine bis(trifluoroacetate)]		2.38	2.0	1.18	
CCCCc1nc2c(N)nc3ccccc3c2n1CCNS(C)(=O)=O [IRM 9, N-[2-(4-amino-2-butyl-1H-imidazo[4,5-c]quinolin-1-yl)ethyl]methanesulfonamide]		8.64	11.2	0.77	
COCCc1nc2c(N)nc3ccccc3c2n1CCOCCNC(=O)Nc1ccccc1 [IRM 10, N-(2-{2-[4-amino-2-(2-methoxyethyl)-1H-imidazo[4,5-c]quinolin-1-yl]ethoxy}ethyl)-n′-phenylurea]	1.08	7.25	6.7		
CCOCc1nc2c(N)nc3ccccc3c2n1CC(C)(C)N [IRM 11, 1-(2-amino-2-methylpropyl)-2-(ethoxymethyl)-1H-imidazo[4,5-c]quinolin-4-amine]		3.14	2.1	1.47	
CCc1nc2c(N)nc3ccccc3c2n1CCCCS(=O)(=O)c1cc(Cl)cc(Cl)c1 [IRM 12, 1-{4-[(3,5-dichlorophenyl)sulfonyl]butyl}-2-ethyl-1H-imidazo[4,5-c]quinolin-4-amine]		6.04	5.2	1.16	
CCOCc1nc2c(N)nc3ccccc3c2n1CCOCCNC(=O)NC1CCCCC1 [IRM 13, N-(2-{2-[4-amino-2-(ethoxymethyl)-1H-imidazo[4,5-c]quinolin-1-yl]ethoxy}ethyl)-n′-cyclohexylurea]	0.99	2.33	2.3		
CCOCc1nc2c(N)nc3ccccc3c2n1CCCNC(=S)Nc1cccc(C#N)c1 [IRM 14, N-{3-[4-amino-2-(ethoxymethyl)-1H-imidazo[4,5-c]quinolin-1-yl]propyl}-n′-(3-cyanophenyl)thiourea]	1.26	10.00	7.9		
CCCCc1nc2c(N)nc3ccccc3c2n1CC(C)(C)CNC(=O)c1ccccc1 [IRM 15, N-[3-(4-amino-2-butyl-1H-imidazo[4,5-c]quinolin-1-yl)-2,2-dimethylpropyl]benzamide]		2.14	2.7	0.78	
CCc1nc2c(N)nc3ccccc3c2n1CCCCNS(C)(=O)=O [IRM 16, N-[4-(4-amino-2-ethyl-1H-imidazo[4,5-c]quinolin-1-yl)butyl]methanesulfonamide]					does not activate TLR8
